Test results: patent publication US6737383B1, “Herbicidal oxadiazolidines” (priority 1999, dated 2004)

Key:
blackgrass = test: Test B pre/postemergence blackgrass; format: in vivo, Alopecurus myosuroides
How it was run: (§1)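 Herbicidal effect was estimated by eye on a ten-point control scale after plants spent twelve to sixteen days in a greenhouse following soil or foliar treatment. Foliar sprays targeted plants at one to four leaves; all doses were formulated in a non-phytotoxic solvent with surfactant.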

surinam grass = test: Test B pre/postemergence surinam grass; format: in vivo, Brachiaria decumbens
How it was run: as §1

cocklebur = test: Test B pre/postemergence cocklebur; format: in vivo, Xanthium strumarium
How it was run: as §1

corn = test: Test B pre/postemergence corn; format: in vivo, Zea mays
How it was run: as §1

crabgrass = test: Test B pre/postemergence crabgrass; format: in vivo, Digitaria sanguinalis
How it was run: as §1

giant foxtail = test: Test B pre/postemergence giant foxtail; format: in vivo, Setaria faberii
How it was run: as §1

morningglory = test: Test B pre/postemergence morningglory; format: in vivo, Ipomoea hederacea
How it was run: as §1

pigweed = test: Test B pre/postemergence pigweed; format: in vivo, Amaranthus retroflexus
How it was run: as §1

rape = test: Test B pre/postemergence rape; format: in vivo, Brassica napus
How it was run: as §1

soybean = test: Test B pre/postemergence soybean; format: in vivo, Glycine max
How it was run: as §1

sugar beet = test: Test B pre/postemergence sugar beet; format: in vivo, Beta vulgaris
How it was run: as §1

velvetleaf = test: Test B pre/postemergence velvetleaf; format: in vivo, Abutilon theophrasti
How it was run: as §1

wheat = test: Test B pre/postemergence wheat; format: in vivo, Triticum aestivum
How it was run: as §1

wild oat = test: Test B pre/postemergence wild oat; format: in vivo, Avena fatua
How it was run: as §1

purple nutsedge = test: Test B pre/postemergence purple nutsedge; format: in vivo, Cyperus rotundus
How it was run: as §1

rice = test: Test B flood test rice; format: in vivo, Oryza sativa
How it was run: (§2)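 Read-out is a visual response score from 0 (no effect) to 10 (complete control), assigned by comparison with untreated controls. Treatment was applied at the 2-leaf stage, and plants stayed in the greenhouse for twelve to sixteen days before scoring.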

smallflower flatsedge = test: Test B flood test smallflower flatsedge; format: in vivo, Cyperus difformis
How it was run: as §2

duck salad = test: Test B flood test duck salad; format: in vivo, Heteranthera limosa
How it was run: as §2

bamyardgrass = test: Test B flood test barnyardgrass; format: in vivo, Echinochloa crus-galli
How it was run: as §2

[1] = Postemergence, Rate 31 g/ha, visual rating, scale 0 to 10 (0 no effect, 10 complete control)
[2] = Postemergence, Rate 62 g/ha, scale 0 to 10, 0 is no effect, 10 is complete control
[3] = Postemergence, Rate 125 g/ha, scale of 0 to 10 where 0 is no effect and 10 is complete control
[4] = Postemergence, Rate 250 g/ha, scale of 0 to 10, 0 is no effect, 10 is complete control
[5] = Preemergence, Rate 31 g/ha, visual rating, scale 0 to 10 (0 no effect, 10 complete control)
[6] = Preemergence, Rate 62 g/ha, scale of 0 to 10 where 0 is no effect and 10 is complete control
[7] = Preemergence, Rate 125 g/ha, scale of 0 to 10 where 0 is no effect and 10 is complete control
[8] = Preemergence, Rate 250 g/ha, scale 0 to 10 (0 no effect, 10 complete control)
[9] = Rate 31 g/ha, Pre-emergence section (flood test species), scale 0 to 10
[10] = Rate 62 g/ha, flood test species, Pre-emergence, visual evaluation after twelve to sixteen days
[11] = Rate 125 g/ha, under heading Pre-emergence, flood test species, visual evaluation after twelve to sixteen days
[12] = Rate 250 g/ha, Pre-emergence (flood test species), scale 0 to 10, 0 is no effect, 10 is complete control

CCOP(=O)(OCC)C(C)n1c(=O)on(C(=O)N(c2ccc(Cl)cc2)C(C)C)c1=O (centres unmarked) [Compound 644]
Blackgrass plant response rating (blackgrass; [1]): 0 | Plant response rating, Blackgrass (blackgrass; [2]): 0 | Blackgrass plant response rating (blackgrass; [3]): 0 | Blackgrass plant response rating (blackgrass; [4]): 0 | Blackgrass plant response rating (blackgrass; [5]): 0 | Blackgrass plant response rating (blackgrass; [6]): 0 | Blackgrass plant response rating (blackgrass; [7]): 0 | Plant response rating, Blackgrass (blackgrass; [8]): 0 | B. signalgrass plant response rating (surinam grass; [1]): 0 | Plant response rating, B. signalgrass (surinam grass; [2]): 0 | Plant response rating, B. signalgrass (surinam grass; [3]): 0 | B. signalgrass plant response rating (surinam grass; [4]): 0 | B. signalgrass plant response rating (surinam grass; [5]): 0 | B. signalgrass plant response rating (surinam grass; [6]): 0 | B. signalgrass plant response rating (surinam grass; [7]): 0 | Plant response rating, B. signalgrass (surinam grass; [8]): 2 | Cocklebur plant response rating (cocklebur; [1]): 0 | Plant response rating, Cocklebur (cocklebur; [2]): 0 | Cocklebur plant response rating (cocklebur; [3]): 0 | Cocklebur plant response rating (cocklebur; [4]): 0 | Cocklebur plant response rating (cocklebur; [5]): 0 | Cocklebur plant response rating (cocklebur; [6]): 0 | Cocklebur plant response rating (cocklebur; [7]): 0 | Plant response rating, Cocklebur (cocklebur; [8]): 0 | Corn plant response rating (corn; [1]): 0 | Plant response rating, Corn (corn; [2]): 0 | Corn plant response rating (corn; [3]): 0 | Corn plant response rating (corn; [4]): 0 | Corn plant response rating (corn; [5]): 0 | Corn plant response rating (corn; [6]): 0 | Corn plant response rating (corn; [7]): 0 | Plant response rating, Corn (corn; [8]): 0 | Crabgrass plant response rating (crabgrass; [1]): 0 | Plant response rating, Crabgrass (crabgrass; [2]): 0 | Crabgrass plant response rating (crabgrass; [3]): 0 | Crabgrass plant response rating (crabgrass; [4]): 0 | Crabgrass plant response rating (crabgrass; [5]): 2 | Crabgrass plant response rating (crabgrass; [6]): 2 | Plant response rating, Crabgrass (crabgrass; [8]): 3 | Giant foxtail plant response rating (giant foxtail; [1]): 0 | Plant response rating, Giant foxtail (giant foxtail; [2]): 0 | Giant foxtail plant response rating (giant foxtail; [3]): 0 | Giant foxtail plant response rating (giant foxtail; [4]): 0 | Giant foxtail plant response rating (giant foxtail; [5]): 0 | Giant foxtail plant response rating (giant foxtail; [6]): 0 | Giant foxtail plant response rating (giant foxtail; [7]): 2 | Plant response rating, Giant foxtail (giant foxtail; [8]): 6 | Morningglory plant response rating (morningglory; [1]): 0 | Plant response rating, Morningglory (morningglory; [2]): 0 | Morningglory plant response rating (morningglory; [3]): 0 | Morningglory plant response rating (morningglory; [4]): 0 | Morningglory plant response rating (morningglory; [6]): 0 | Morningglory plant response rating (morningglory; [7]): 0 | Plant response rating, Morningglory (morningglory; [8]): 3 | Redroot pigweed plant response rating (pigweed; [1]): 2 | Plant response rating, Redroot pigweed (pigweed; [2]): 2 | Redroot pigweed plant response rating (pigweed; [3]): 3 | Redroot pigweed plant response rating (pigweed; [4]): 3 | Redroot pigweed plant response rating (pigweed; [6]): 0 | Redroot pigweed plant response rating (pigweed; [7]): 0 | Plant response rating, Redroot pigweed (pigweed; [8]): 0 | Rape plant response rating (rape; [1]): 0 | Plant response rating, Rape (rape; [2]): 0 | Rape plant response rating (rape; [3]): 0 | Rape plant response rating (rape; [4]): 0 | Rape plant response rating (rape; [6]): 0 | Rape plant response rating (rape; [7]): 0 | Plant response rating, Rape (rape; [8]): 2 | Soybean plant response rating (soybean; [1]): 0 | Plant response rating, Soybean (soybean; [2]): 0 | Soybean plant response rating (soybean; [3]): 0 | Soybean plant response rating (soybean; [6]): 0 | Soybean plant response rating (soybean; [7]): 0 | Plant response rating, Soybean (soybean; [8]): 0 | Sugarbeets plant response rating (sugar beet; [1]): 0 | Plant response rating, Sugarbeets (sugar beet; [2]): 0 | Sugarbeets plant response rating (sugar beet; [3]): 0 | Sugarbeets plant response rating (sugar beet; [4]): 0 | Sugarbeets plant response rating (sugar beet; [6]): 0 | Sugarbeets plant response rating (sugar beet; [7]): 0 | Plant response rating, Sugarbeets (sugar beet; [8]): 0 | Velvetleaf plant response rating (velvetleaf; [1]): 0 | Plant response rating, Velvetleaf (velvetleaf; [2]): 0 | Velvetleaf plant response rating (velvetleaf; [3]): 0 | Velvetleaf plant response rating (velvetleaf; [4]): 0 | Velvetleaf plant response rating (velvetleaf; [6]): 0 | Velvetleaf plant response rating (velvetleaf; [7]): 0 | Plant response rating, Velvetleaf (velvetleaf; [8]): 0 | Wheat plant response rating (wheat; [1]): 0 | Plant response rating, Wheat (wheat; [2]): 0 | Wheat plant response rating (wheat; [3]): 0 | Wheat plant response rating (wheat; [4]): 0 | Wheat plant response rating (wheat; [6]): 0 | Wheat plant response rating (wheat; [7]): 0 | Plant response rating, Wheat (wheat; [8]): 0 | Wild oats plant response rating (wild oat; [1]): 0 | Plant response rating, Wild oats (wild oat; [2]): 0 | Wild oats plant response rating (wild oat; [3]): 0 | Wild oats plant response rating (wild oat; [4]): 0 | Wild oats plant response rating (wild oat; [6]): 0 | Wild oats plant response rating (wild oat; [7]): 0 | Plant response rating, Wild oats (wild oat; [8]): 0 | Nutsedge plant response rating (purple nutsedge; [1]): 0 | Nutsedge plant response rating (purple nutsedge; [3]): 0 | Nutsedge plant response rating (purple nutsedge; [6]): 0 | Nutsedge plant response rating (purple nutsedge; [7]): 0 | Rice plant response rating (rice; [9]): 0 | Plant response rating, Rice (0 to 10 scale, 0 is no effect, 10 is complete control) (rice; [10]): 0 | Rice plant response rating (0 to 10 scale, 0 is no effect, 10 is complete control) (rice; [11]): 0 | Rice plant response rating (rice; [12]): 0 | S. Flatsedge plant response rating (smallflower flatsedge; [9]): 0 | Plant response rating, S. Flatsedge (0 to 10 scale, 0 is no effect, 10 is complete control) (smallflower flatsedge; [10]): 0 | S. Flatsedge plant response rating (0 to 10 scale, 0 is no effect, 10 is complete control) (smallflower flatsedge; [11]): 0 | S. Flatsedge plant response rating (smallflower flatsedge; [12]): 0 | Ducksalad plant response rating (duck salad; [9]): 0 | Plant response rating, Ducksalad (0 to 10 scale, 0 is no effect, 10 is complete control) (duck salad; [10]): 0 | Ducksalad plant response rating (0 to 10 scale, 0 is no effect, 10 is complete control) (duck salad; [11]): 0 | Ducksalad plant response rating (duck salad; [12]): 0 | Barnyardgrass plant response rating (bamyardgrass; [9]): 0 | Plant response rating, Barnyardgrass (0 to 10 scale, 0 is no effect, 10 is complete control) (bamyardgrass; [10]): 0 | Barnyardgrass plant response rating (0 to 10 scale, 0 is no effect, 10 is complete control) (bamyardgrass; [11]): 0 | Barnyardgrass plant response rating (bamyardgrass; [12]): 0
